Measured values taken from ChEMBL document CHEMBL5532675, “Discovery of 4-Ethoxy-6-chloro-5-azaindazoles as Novel PDE4 Inhibitors for the Treatment of Alcohol Use Disorder and Alcoholic Liver Diseases” (J Med Chem, 2024).
Calls of active or inactive are those of the source. No cut-off for these calls is given here.

Tests used:
[1] = biological target: 3',5'-cyclic-AMP phosphodiesterase 4D (Homo sapiens, UniProt Q08499); assay: Inhibition of PDE4D7 (unknown origin) using FAM-cyclic-3',5'-AMP as substrate incubated for 1 hrs by fluorescence polarization based IMAP assay
3',5'-cyclic-AMP phosphodiesterase 4D, sequence (Q08499 whole entry): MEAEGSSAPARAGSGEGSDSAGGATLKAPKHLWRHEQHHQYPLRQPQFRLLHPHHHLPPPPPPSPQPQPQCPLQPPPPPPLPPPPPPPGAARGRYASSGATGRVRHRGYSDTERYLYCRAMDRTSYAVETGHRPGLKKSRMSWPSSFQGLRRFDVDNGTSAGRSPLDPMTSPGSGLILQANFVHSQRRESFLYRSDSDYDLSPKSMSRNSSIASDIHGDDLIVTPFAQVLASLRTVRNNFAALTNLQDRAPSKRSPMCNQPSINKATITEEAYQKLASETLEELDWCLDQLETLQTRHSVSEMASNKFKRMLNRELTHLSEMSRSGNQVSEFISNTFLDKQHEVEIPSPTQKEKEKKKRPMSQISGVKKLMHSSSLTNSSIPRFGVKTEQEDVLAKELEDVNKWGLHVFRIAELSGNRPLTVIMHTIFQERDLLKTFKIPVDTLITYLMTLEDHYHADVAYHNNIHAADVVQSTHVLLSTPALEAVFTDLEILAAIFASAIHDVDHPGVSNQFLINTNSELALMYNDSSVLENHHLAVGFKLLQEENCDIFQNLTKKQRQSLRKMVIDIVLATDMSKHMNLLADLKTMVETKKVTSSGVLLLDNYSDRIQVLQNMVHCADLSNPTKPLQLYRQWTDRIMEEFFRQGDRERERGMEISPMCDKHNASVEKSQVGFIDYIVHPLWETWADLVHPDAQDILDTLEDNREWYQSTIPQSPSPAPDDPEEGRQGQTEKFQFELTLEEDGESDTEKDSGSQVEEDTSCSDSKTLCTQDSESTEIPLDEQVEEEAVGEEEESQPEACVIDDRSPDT

[2] = Drug concentration in Sprague-Dawley rat plasma at 10 mg/kg, po administered as single dose for 1 hrs by LC-MS analysis; format: ADME, organism-based
[3] = test system: Mus musculus; assay: Protection against alcohol exposure-induced anxiety like behavior in C57BL/6J mouse model assessed as distance travelled at 1 to 2.5 mg/kg, po pre-trained with alcohol and water for 42 days with subsequent compound addition from day 22 to day 42 followed by 3.5 hrs of darkness and compound administration for 30 mins followed by water replacement with alcohol for 4 hrs and measured 24 hrs after alcohol withdrawal by open field test; format: functional, organism-based; details: dose 1-2.5 mg/kg

## CCOc1nc(Cl)cc2c1cnn2CCCC(=O)O
[1]
  IC50: 0.0374 µM
[2]
  concentration at 1 h: 19.5 µg/mL
[3]
  Activity: Active
